The record followed here is US20080207446A1, “Use of Phenylsemicarbazones for Seed Treatment” (BASF Aktiengesellschaft, priority 2005, published 2008).

What all share (assay type): in vivo
Data set [1] has as its system carrot seeds. As to the kind of experiment: Absence of phytotoxicity: sprouting of treated carrot seeds. As to conditions: for Influence on the viability of carrot seeds: seed treatment, conclusion from Table 1. As for the experimental part: To determine the effect of seed treatment on the viability of seeds and sprouting plants, carrot seeds were either treated with metaflumizone, coated with the insecticide chlorfenvinphos (commercially available under, and herein referred to by, the name Birlane™) or left untreated, then sowed and raised under controlled environmental conditions. At day 20 and day 43, respectively, the percentage of seeds which had sprouted was assessed.

In data set [2] the test system is Psila rosae. As to the kind of experiment: Short-term protection of carrots against Psila rosae by seed coating. As to conditions: for Reduction of early damage by maggots: conclusion from Table 2. The text has this: In order to determine the efficacy of seed coating against dipteran larvae, carrot seeds were coated with two different concentrations of metaflumizone, Birlane™ or left untreated, then sowed and raised as described in Example 1. At day 35 after sowing, the plants were exposed to infestation by Psila rosae, which was monitored by adult trap catches. 300 to 400 insects per trap indicated fair infestation pressure. At days 35 and 91, respectively, 100 plants per field were examined for maggot infestation.
All test products were applied by seed coating of carrot seeds. Birlane™ was applied according to label recommendations for carrots. Metaflumizone was applied at 50 ml and 100 ml formulated product per seed unit, respectively. The assessments of carrot rooffly damage were conducted 35 and 91 daysafter sowing. Infestation was evaluated by assessing 100 carrot roots per treatment, and the number of infested plants was recorded. The figures included in the table show the percentage of damaged plants by treatment.

In data set [3] the test system is Psila rosae. As to the kind of experiment: Long-term effect of carrot seed coating against Psila rosae. As to conditions: for Percentage of plants infested with Psila rosae (long-term): carrot seed coating 100 ml/unit; for Persistence of the protective effect of seed treatment: carrot seed coating, conclusion from Table 3. The procedure: The objective of this trial was the direct comparison of metaflumizone with the market standard Birlane™ at 100 ml product per unit of seed. Activity evaluation considered the residual activity of the products up to 124 days after application.
Carrot seeds were coated or left uncoated, sowed and raised as described in Example 2 and subjected to Psila rosae infestation at an approximate density of 300 to 400 insects per trap at days 46 to 53 after sowing. At days 82, 96, 110 and 124, respectively, 100 plants per field were examined for maggot infestation.

The test system of data set [4] is Psila rosae. As to the kind of experiment: Effective dosage of metaflumizone on carrot seeds against Psila rosae. The text has this: In order to quantify the effect of metaflumizone against maggots, carrot seeds were coated with different concentrations of metaflumizone, with Birlane™ or left uncoated, then sowed and raised as described in the above Examples.

For data set [5], the system named is Helix hortensis. As to the kind of experiment: Greenhouse snail trial on sprayed lettuce. Conditions: lettuce sprayed with 240 g active ingredient per ha (240 g/l suspension concentrate). As for the experimental part:
For this example, a 240 g/l suspension concentrate of a compound I with R^1=trifluoromethyl in meta position, R^2=cyano in para position and R^3=trifluoromethoxy in para position was used with an application rate of 240 gram active ingredient per ha.
The trial was carried out in the greenhouse under practical conditions in sandy soil. Three lettuce plants, variety Filipo, growth stage 45-46, were used as plot size. The lettuce was sprayed with a solution of the above mentioned compound at a rate of 240 gram active ingredient per hectare with 500 l/ha water. For spraying was a single Teejet® nozzle, model 8002 (from Spraying System Mobile Systems Division, Wheaton, Ill., USA), at 3 atmosphere pressure used.
After the spray application, the plots were covered by net cages (diameter 40 cm) and 20 snails (sexually mature individuals of Helix hortensis) were added to every plot.
Also an estimation of eating damages was recorded.

The mark [6] stands for this setting: 4 days after placing the snails.

SMILES strings stand for the structures.

Consider `CCOP(=O)(OCC)O/C(=C\Cl)c1ccc(Cl)cc1Cl` [Birlane ™, chlorfenvinphos, reference compound], for which the “Percentage of growing plants” value was found to be 52% in data set [1] (carrot seeds, Day 20, coated with Birlane) and 56% in data set [1] (carrot seeds, Day 43, coated with Birlane). Also, the “Influence on the viability of carrot seeds” value in data set [1] is reported as “no significant influence”. Besides, the “Percentage of plants infested with Psila rosae” value amounted to 9% in data set [2] (carrot seed coating according to label recommendations, Day 35 after sowing) and 12% in data set [2] (carrot seed coating according to label recommendations, Day 91 after sowing). In addition, the “Reduction of early damage by maggots” value in data set [2] (carrot seed coating) is reported as “effective in reducing early damage by maggots”. The “Percentage of plants infested with Psila rosae (long-term)” value in data set [3] (Day 82) turned out to be 0.5%; in data set [3] (Day 96), 2%; in data set [3] (Day 110), 8%; in data set [3] (Day 124), 11%. Also, in data set [3], the “Persistence of the protective effect of seed treatment” value was “gradually wore off after 3-4 months”. Moreover, the “Effective dosage of metaflumizone in the treatment of carrot seeds (percentage)” value (“Effective dosage of metaflumizone … (percentage)” for short) is 0.1% in data set [4] (Birlane, dose not given, Day 70); 23% in data set [4] (Birlane, dose not given, Day 97); 61% in data set [4] (Birlane, dose not given, Day 116).

Take `N#Cc1ccc(C/C(=N/NC(=O)Nc2ccc(OC(F)(F)F)cc2)c2cccc(C(F)(F)F)c2)cc1` [metaflumizone, 2-[2-(4-cyanophenyl)-1-[3-(trifluoromethyl)phenyl]ethylidene]-N-[4-(trifluoromethoxy)phenyl]hydrazinecarboxamide]: the snails inactive in data set [5] (1 day after placing the snails) turned out to be 47%. In data set [5] (2 days after placing the snails), this compound gave a snails inactive of 63%. Further, in data set [5] (setting [6]), the snails dead is given as 71% and the “snails inactive (further to the dead)” value was found to be 12%.

For the compound `N#Cc1ccc(CC(=NNC(=O)Nc2ccc(OC(F)(F)F)cc2)c2cccc(C(F)(F)F)c2)cc1` (racemic) [metaflumizone, 2-[2-(4-cyanophenyl)-1-[3-(trifluoromethyl)phenyl]ethylidene]-N-[4-(trifluoromethoxy)phenyl]hydrazinecarboxamide], the “Percentage of growing plants” value in data set [1] (carrot, in vivo, 20 day) is 42%; in data set [1] (carrot, in vivo, 43 day), 47%. In addition, the “Influence on the viability of carrot seeds” value in data set [1] was “no significant influence”. The “Percentage of plants infested with Psila rosae” value in data set [2] (carrot seed coating 50 ml/unit, Day 35 after sowing) is 3%; in data set [2] (carrot seed coating 50 ml/unit, Day 91 after sowing), 12%; in data set [2] (carrot seed coating 100 ml/unit, Day 35 after sowing) it was 7%; in data set [2] (carrot seed coating 100 ml/unit, Day 91 after sowing), 10%. For the same compound, in data set [2] (carrot seed coating), the “Reduction of early damage by maggots” value is reported as “effective in reducing early damage by maggots”. In addition, the “Prevention of damage to seedlings compared with Birlane” value in data set [2] (carrot seed coating, during the first weeks) is “slightly more efficient than Birlane™”. Further, the “Percentage of plants infested with Psila rosae (long-term)” value in data set [3] (Day 82) came out at 2%; in data set [3] (Day 96) it was 4%; in data set [3] (Day 110), 10%; in data set [3] (Day 124) it was 22%. Also, in data set [3], the “Persistence of the protective effect of seed treatment” value is “gradually wore off after 3-4 months”. Further, the “Effective dosage of metaflumizone … (percentage)” value in data set [4] (25 ml/unit, Day 70) is on record as 2%; in data set [4] (25 ml/unit, Day 97), 33%; in data set [4] (25 ml/unit, Day 116) it was 73%; in data set [4] (50 ml/unit, Day 70), 1%; in data set [4] (50 ml/unit, Day 97), 24%; in data set [4] (50 ml/unit, Day 116), 61%. Further, the “Effective dosage of metaflumizone … (percentage)” value in data set [4] (75 ml/unit, Day 70) came out at 0%; in data set [4] (75 ml/unit, Day 97) it was 14%; in data set [4] (75 ml/unit, Day 116) it was 55%; in data set [4] (100 ml/unit, Day 70), 0%; in data set [4] (100 ml/unit, Day 97) it was 29%; in data set [4] (100 ml/unit, Day 116) it was 55%.
